This is an account of results in the NIST ThermoML archive (doi:10.1016/j.jct.2015.02.004).

± gives the expanded uncertainty stated by the source.

The conditions of this data set: 298.15 K; 101.33 kPa; Liquid; Pycnometric method.
By mass density is commonly meant the mass of a sample divided by its volume. As for `CC(C)=O` [acetone], the mass density came to 783.8 ± 1.9 kg/m3.

Turning to `CCOC(C)=O` [ethyl acetate], the mass density was 893.4 ± 2.1 kg/m3. As for `CCCCO` [butan-1-ol], the mass density is 805.5 ± 2 kg/m3. As for `CO` [methanol], the mass density stood at 786.3 ± 1.9 kg/m3.

As to `CC#N` [acetonitrile], the mass density was found to be 776.3 ± 1.9 kg/m3. With `CCO` [ethanol], the mass density is 784.2 ± 1.9 kg/m3. For `CC(C)O` [propan-2-ol], the mass density came out at 780.6 ± 1.9 kg/m3. For `COC(C)(C)C` [2-methoxy-2-methylpropane] the value was 734.1 ± 1.9 kg/m3.
